# Reference: patent US11046696B2, “Fused pyrimidine compound or salt thereof” (TAIHO PHARMACEUTICAL CO., LTD., priority 2016, dated 2021)
# Assay: Evaluation of stability in liver microsome
# Conditions: mouse liver microsome, 1 μM, 37° C. for 30 minutes
row,Remaining (%),SMILES
1,0,"Nc1ncnc2c1c(C(=O)Nc1ccc(Oc3ccccc3)cc1)cn2C1CCCC1 [Compound 2 of Comparative Examples, 4-amino-7-cyclopentyl-N-(4-phenoxyphenyl)-7H-pyrrolo[2,3-d]pyrimidine-5-carboxamide, reference compound]"
2,64,"COCc1ccc(NC(=O)c2cn(C(C)(C)C)c3ncnc(N)c23)cc1 [Example 2, 4-amino-7-(tert-butyl)-N-(4-(methoxymethyl)phenyl)-7H-pyrrolo[2,3-d]pyrimidine-5-carboxamide]"
3,60,"COCc1ccc(NC(=O)c2cn(C(C)(C)CF)c3ncnc(N)c23)cc1 [Example 26, 4-amino-7-(1-fluoro-2-methylpropan-2-yl)-N-(4-(methoxymethyl)phenyl)-7H-pyrrolo[2,3-d]pyrimidine-5-carboxamide]"
4,54,"COCc1ccc(NC(=O)c2cn(C(C)(C)C)c3ncnc(N)c23)cc1F [Example 30, 4-amino-7-(tert-butyl)-N-(3-fluoro-4-(methoxymethyl)phenyl)-7H-pyrrolo[2,3-d]pyrimidine-5-carboxamide]"
5,57,"COCc1ccc(NC(=O)c2cn(C(C)(C)C)c3ncnc(N)c23)c(OC)c1 [Example 33, 4-amino-7-(tert-butyl)-N-(2-methoxy-4-(methoxymethyl)phenyl)-7H-pyrrolo[2,3-d]pyrimidine-5-carboxamide]"
6,58,"[2H]C([2H])([2H])OCc1ccc(NC(=O)c2cn(C(C)(C)C)c3ncnc(N)c23)cc1 [Example 35, 4-amino-7-(tert-butyl)-N-(4-((methoxy-d3)-methyl)phenyl)-7H-pyrrolo[2,3-d]pyrimidine-5-carboxamide]"
7,73,"COCc1ccc(NC(=O)c2cn(C3(C)CC3)c3ncnc(N)c23)cc1 [Example 36, 4-amino-N-(4-(methoxymethyl)phenyl)-7-(1-methylcyclopropyl)-7H-pyrrolo[2,3-d]pyrimidine-5-carboxamide]"
8,56,"COCc1ccc(NC(=O)c2cn(C(C)(C)CF)c3ncnc(N)c23)cc1F [Example 41, 4-amino-7-(1-fluoro-2-methylpropan-2-yl)-N-(3-fluoro-4-(methoxymethyl)phenyl)-7H-pyrrolo[2,3-d]pyrimidine-5-carboxamide]"
9,66,"COCc1ccc(NC(=O)c2cn(C3(CF)CC3)c3ncnc(N)c23)cc1 [Example 45, 4-amino-7-(1-(fluoromethyl)cyclopropyl)-N-(4-(methoxymethyl)phenyl)-7H-pyrrolo[2,3-d]pyrimidine-5-carboxamide]"
10,65,"COCc1ccc(NC(=O)c2cn(C3(C(F)F)CC3)c3ncnc(N)c23)cc1 [Example 46, 4-amino-7-(1-(difluoromethyl)cyclopropyl)-N-(4-(methoxymethyl)phenyl)-7H-pyrrolo[2,3-d]pyrimidine-5-carboxamide]"
11,58,"COCc1ccc(NC(=O)c2cn(C3(C)CC3)c3ncnc(N)c23)cc1F [Example 48, 4-amino-N-(3-fluoro-4-(methoxymethyl)phenyl)-7-(1-methylcyclopropyl)-7H-pyrrolo[2,3-d]pyrimidine-5-carboxamide]"
12,67,"COCc1ccc(NC(=O)c2cn(C3(C4CC4)CC3)c3ncnc(N)c23)cc1 [Example 49, 7-{[1,1-bi(cyclopropane)]-1-yl}-4-amino-N-(4-(methoxymethyl)phenyl)-7H-pyrrolo[2,3-d]pyrimidine-5-carboxamide]"
13,53,"COCc1ccc(NC(=O)c2cn(C(C)(C)C(F)F)c3ncnc(N)c23)cc1 [Example 50, 4-amino-7-(1,1-difluoro-2-methylpropan-2-yl)-N-(4-(methoxymethyl)phenyl)-7H-pyrrolo[2,3-d]pyrimidine-5-carboxamide]"
14,56,"COCc1ccc(NC(=O)c2c(Br)n(C3(C)CC3)c3ncnc(N)c23)cc1 [Example 55, 4-amino-6-bromo-N-[4-(methoxymethyl)phenyl]-7-(1-methylcyclopropyl)-7H-pyrrolo[2,3-d]pyrimidine-5-carboxamide]"
15,62,"COCc1ccc(NC(=O)c2c(Cl)n(C3(C)CC3)c3ncnc(N)c23)cc1 [Example 56, 4-amino-6-chloro-N-[4-(methoxymethyl)phenyl]-7-(1-methylcyclopropyl)-7H-pyrrolo[2,3-d]pyrimidine-5-carboxamide]"
16,86,"COCc1ccc(NC(=O)c2c(OC)n(C3(C)CC3)c3ncnc(N)c23)cc1 [Example 57, 4-amino-6-methoxy-N-[4-(methoxymethyl)phenyl]-7-(1-methylcyclopropyl)-7H-pyrrolo[2,3-d]pyrimidine-5-carboxamide]"
17,81,"COCc1ccc(NC(=O)c2c(C)n(C(C)(C)C)c3ncnc(N)c23)cc1 [Example 60, 4-amino-7-(tert-butyl)-N-(4-(methoxymethyl)phenyl)-6-methyl-7H-pyrrolo[2,3-d]pyrimidine-5-carboxamide]"

row,Remaining (%),SMILES
1,81,"COCc1ccc(NC(=O)c2c(-c3cccnc3)n(C3(C)CC3)c3ncnc(N)c23)cc1 [Example 61, 4-amino-N-(4-(methoxymethyl)phenyl)-7-(1-methylcyclopropyl)-6-(pyridin-3-yl)-7H-pyrrolo[2,3-d]pyrimidine-5-carboxamide]"
2,89,"COCc1ccc(NC(=O)c2c(C(C)=O)n(C3(C)CC3)c3ncnc(N)c23)cc1 [Example 64, 6-acetyl-4-amino-N-(4-(methoxymethyl)phenyl)-7-(1-methylcyclopropyl)-7H-pyrrolo[2,3-d]pyrimidine-5-carboxamide]"
3,79,"C=Cc1c(C(=O)Nc2ccc(COC)cc2)c2c(N)ncnc2n1C1(C)CC1 [Example 65, 4-amino-N-(4-(methoxymethyl)phenyl)-7-(1-methylcyclopropyl)-6-vinyl-7H-pyrrolo[2,3-d]pyrimidine-5-carboxamide]"
4,69,"COCc1ccc(NC(=O)c2c(F)n(C3(C)CC3)c3ncnc(N)c23)cc1 [Example 69, 4-amino-6-fluoro-N-(4-(methoxymethyl)phenyl)-7-(1-methylcyclopropyl)-7H-pyrrolo[2,3-d]pyrimidine-5-carboxamide]"
5,50,"CC(C)(C)n1cc(C(=O)Nc2ccc(-c3cc[nH]n3)cc2)c2c(N)ncnc21 [Example 80, N-(4-(1H-pyrazol-3-yl)phenyl)-4-amino-7-(tert-butyl)-7H-pyrrolo[2,3-d]pyrimidine-5-carboxamide]"
6,66,"COCc1ccc(NC(=O)c2c(C#CCC(C)(C)O)n(C3(C)CC3)c3ncnc(N)c23)cc1 [Example 86, 4-amino-6-(4-hydroxy-4-methylpent-1-yn-1-yl)-N-[4-(methoxymethyl)phenyl]-7-(1-methylcyclopropyl)-7H-pyrrolo[2,3-d]pyrimidine-5-carboxamide]"
7,63,"COCc1ccc(NC(=O)c2c(C#CC3CCOCC3)n(C3(C)CC3)c3ncnc(N)c23)cc1 [Example 87, 4-amino-N-[4-(methoxymethyl)phenyl]-7-(1-methylcyclopropyl)-6-((tetrahydro-2H-pyran-4-yl)ethynyl)-7H-pyrrolo[2,3-d]pyrimidine-5-carboxamide]"
8,59,"COCc1ccc(NC(=O)c2c(C#CCN3CCCC3)n(C3(C)CC3)c3ncnc(N)c23)cc1 [Example 88, 4-amino-N-[4-(methoxymethyl)phenyl]-7-(1-methylcyclopropyl)-6-(3-(pyrrolidin-1-yl)prop-1-yn-1-yl)-7H-pyrrolo[2,3-d]pyrimidine-5-carboxamide]"
9,69,"COCc1ccc(NC(=O)c2c(OC[C@H]3CCCO3)n(C3(C)CC3)c3ncnc(N)c23)cc1 [Example 89, (R)-4-amino-N-[4-(methoxymethyl)phenyl]-7-(1-methylcyclopropyl)-6-((tetrahydrofuran-2-yl)methoxy)-7H-pyrrolo[2,3-d]pyrimidine-5-carboxamide]"
10,67,"COCc1ccc(NC(=O)c2c(C#Cc3cnn(C)c3)n(C3(C)CC3)c3ncnc(N)c23)cc1 [Example 90, 4-amino-N-[4-(methoxymethyl)phenyl]-6-((1-methyl-1H-pyrazol-4-yl)ethynyl)-7-(1-methylcyclopropyl)-7H-pyrrolo[2,3-d]pyrimidine-5-carboxamide]"
11,65,"COCc1ccc(NC(=O)c2c(C#Cc3cnc4cccnn34)n(C3(C)CC3)c3ncnc(N)c23)cc1 [Example 91, 4-amino-6-(imidazo[1,2-b]pyridazin-3-ylethynyl)-N-[4-(methoxymethyl)phenyl]-7-(1-methylcyclopropyl)-7H-pyrrolo[2,3-d]pyrimidine-5-carboxamide]"
12,67,"COCc1ccc(NC(=O)c2c(C#Cc3ccn(C)n3)n(C3(C)CC3)c3ncnc(N)c23)cc1 [Example 92, 4-amino-N-(4-(methoxymethyl)phenyl)-6-((1-methyl-1H-pyrazol-3-yl)ethynyl)-7-(1-methylcyclopropyl)-7H-pyrrolo[2,3-d]pyrimidine-5-carboxamide]"
13,53,"COCc1ccc(NC(=O)c2c(C#Cc3cncn3C)n(C3(C)CC3)c3ncnc(N)c23)cc1 [Example 93, 4-amino-N-(4-(methoxymethyl)phenyl)-6-((1-methyl-1H-imidazol-5-yl)ethynyl)-7-(1-methylcyclopropyl)-7H-pyrrolo[2,3-d]pyrimidine-5-carboxamide]"
14,60,"COCc1ccc(NC(=O)c2c(C#Cc3cccnc3)n(C3(C)CC3)c3ncnc(N)c23)cc1 [Example 94, 4-amino-N-[4-(methoxymethyl)phenyl]-7-(1-methylcyclopropyl)-6-(pyridin-3-ylethynyl)-7H-pyrrolo[2,3-d]pyrimidine-5-carboxamide]"
15,71,"COCc1ccc(NC(=O)c2c(OC[C@@H](C)OC)n(C3(C)CC3)c3ncnc(N)c23)cc1 [Example 96, (R)-4-amino-N-(4-(methoxymethyl)phenyl)-6-(2-methoxypropoxy)-7-(1-methylcyclopropyl)-7H-pyrrolo[2,3-d]pyrimidine-5-carboxamide]"
16,70,"COCc1ccc(NC(=O)c2c(OC[C@@H]3CCCO3)n(C3(C)CC3)c3ncnc(N)c23)cc1 [Example 97, (S)-4-amino-N-(4-(methoxymethyl)phenyl)-7-(1-methylcyclopropyl)-6-((tetrahydrofuran-2-yl)methoxy)-7H-pyrrolo[2,3-d]pyrimidine-5-carboxamide]"
